# Experimental data reported in ChEMBL document CHEMBL3507680, “University of Dundee, Gates Library screen for HepG2 cell viability”.
# Test: Human HepG2 cell viability assay in 384 well format
# Type: toxicity, cell-based
# Design: dose 125 nL, time 70.5 hour; cytotoxicity at 70.5 h: concentration not given beside the values
# Settings: HepG2 cells, read-out: Inhibition
row,SMILES,cytotoxicity at 70.5 h
1,CC1CCCCN1C(=O)c1cn(-c2ccc(C(F)(F)F)cn2)nn1 (configuration not stated),-6.25%
2,CC(C)c1noc(CN(Cc2cccs2)C2CC2)n1,6.94%
3,CN(Cc1ncnn1C)C(=O)c1ccccc1NCc1ccccc1,8.8%
4,CN(CCc1ccccn1)C(=O)CCC1CCCN(c2cnccn2)C1 (configuration not stated),2.36%
5,OC1CN(c2nc3c(C(F)(F)F)cccc3s2)C1,12.2%
6,Cc1cccc(CNCc2c(C(C)C)nn(C)c2N2CCOCC2)n1,0.6%
7,O=c1[nH]nc(CNc2ncc(Cl)cn2)[nH]1,28.8%
8,CN1CCCN(C(=O)c2cccc(S(=O)(=O)NCC3(C)COC3)c2)CC1,-0.00641%
9,COCCOC(=O)N1C[C@H]2CC[C@@H]1CN(C1Cc3ccccc3C1)C2,-3.17%
10,Cc1ccc(C)c(C(O)CN(C)Cc2nnc3ccccn23)c1 (configuration not stated),9.37%
11,CNc1nccnc1C1CCN(C(C)C)CC1,12.4%
12,CCCC(=O)Nc1cnn(CC(=O)Nc2ccc(SC)cc2)c1,-5.62%
13,Cc1cnn(C(C)C2CC2)c1NC(=O)c1ncccc1O (configuration not stated),9.8%
14,Cc1nn(C)c(C)c1NC(=O)Nc1cccnc1N1CCCC1,-7.71%
15,CC(C)c1ncncc1C(=O)N1CCN(Cc2cccnc2)CC1,-6.82%
16,COc1ccc(CN2CCC3(CC2)NC(=O)CC3c2cnn(C)c2)cc1 (configuration not stated),-8.08%
17,Cc1cc(CN2C[C@@H]3COC[C@@H](C(=O)N4CCCCO4)[C@@H]3C2)no1,20.1%
18,O=C(COc1ccc(Cl)cc1Cl)N1CCCSCC1CN1CCOCC1 (configuration not stated),0.222%
19,Cc1cc(C)cc(N2CCN(C(=O)CCN3C[C@@H]4CC[C@H]3C4)CC2=O)c1,-11.2%
20,CSc1ccccc1CN1CCn2nc(CNC(C)=O)cc2C1,-0.83%
21,CN(C)C1CCN(C(=O)c2cc3c(s2)CCN3C(=O)C2CC2)CC1,-2.71%
22,O=C1CN(C(=O)CNC(CC(F)(F)F)c2ccc(F)cc2)CCN1 (configuration not stated),-55.7%
23,Cc1ccc(C)c(OC2CCN(C(=O)NCC(=O)N3CCCC3)CC2)c1,-5.3%

row,SMILES,cytotoxicity at 70.5 h
1,Cc1cccc(C)c1OC1CN(Cc2cnc(-c3ccco3)nc2)C1,-6.4%
2,N#Cc1ccc(C(=O)N2CCOC[C@H](Oc3cnccn3)C2)cc1,-0.682%
3,c1cnc(N2CCCC3(CCN(CC4CC4)C3)C2)nc1 (configuration not stated),-6.19%
4,CCc1ccc(C(=O)NCC2CCCN2CC)o1 (configuration not stated),-3.5%
5,COc1cc(NC(=O)N2CCCC2c2ccco2)cc(OC)c1 (configuration not stated),-8.23%
6,Cc1nccn1[C@@H]1CC[C@@H](NC(=O)CCCn2cccn2)[C@H]1O,19.3%
7,Cn1cnnc1C1CCCN(C(=O)NCCc2ccccn2)C1 (configuration not stated),-4.27%
8,Cc1nc(S(=O)(=O)NCCC(=O)NCc2ccc(C#N)cc2)cn1C,-0.237%
9,CN(C)CC1CSCCCN1S(=O)(=O)Cc1cccc(F)c1 (configuration not stated),-3.38%
10,c1cncc(CN2CCn3cc(CN4CCCCC4)nc3C2)c1,-5.48%
11,CCN1CCC(CC(=O)N2CCc3sc(C(=O)N(C)C)cc3C2)CC1,20.6%
12,CCOc1cccc(C2CC(=O)NCc3nc(N4CCCC4)sc32)c1 (configuration not stated),-3%
13,Cn1cccc1C(=O)N1Cc2c(CN3CCCCC3)nn(C)c2C1,0.721%
14,COCC(C)NC(=O)CN1CCC(CO)CC1 (configuration not stated),-3.9%
15,Cc1cccc(Oc2ccccc2CNC(=O)C2CCNC(=O)C2)c1 (configuration not stated),-6.18%
16,Cn1ncc2c(=O)[nH]c(CN3CCCc4cc(F)ccc43)nc21,-23.1%
17,O=C(c1ccn[nH]1)N1CCCC(n2cncn2)C1 (configuration not stated),5.61%
18,CC(=O)N1CCCN(c2cc(C3CN(C)CCO3)nc(C)n2)CC1 (configuration not stated),12%
19,CC(=O)N1CCN(CCNS(=O)(=O)c2cc(F)cc(F)c2)CC1,-0.303%
20,COCCn1c2c(ccc1=O)CC(NC(=O)c1cscn1)CC2 (configuration not stated),-4.76%
21,CC(C)N1CCO[C@@H]2CN(C(=O)Cc3cccs3)CC[C@@H]2C1,-6.99%
22,CN(Cc1ccco1)C(=O)CN1C(=O)c2ccccc2C1=O,-2.38%
23,COc1ccccc1C(=O)N1CCN(C(=O)CCCc2cn[nH]c2)CC1,-6.9%

row,SMILES,cytotoxicity at 70.5 h
1,N#CC1(NC(=O)CN2CCC(c3ccnn3CCO)CC2)CCCC1,-11.9%
2,O=S(=O)(c1ccccc1N1CC(n2cccn2)C1)C(F)(F)F,1.67%
3,COCc1cc(N(C)CCC(O)c2ccccc2)n2nccc2n1 (configuration not stated),-7.44%
4,COc1ccc(C2=Nn3c(CN)nnc3-c3ccccc3C2)cc1,-18.7%
5,CC[C@@]1(O)CCN(C(=O)CCc2cnn(C)c2)C[C@H]1O,-9.56%
6,COc1cccc(OCc2cc(C(=O)NC[C@H]3CCCN3)n[nH]2)c1,-4.69%
7,Cc1ccc(CSc2nc(N)cc(NCCC(N)=O)n2)cc1,-0.193%
8,Cc1nnc(SCC(=O)N2CCC3(CC2)c2ccccc2CC3O)o1 (configuration not stated),20.7%
9,O=C(c1ccncc1)N1C[C@@H]2CC[C@H](C1)N(C(=O)C1CCCC1)C2,2.1%
10,Cc1cc(C(=O)N(C)Cc2cccs2)nc(N2CCOCC2)n1,-0.782%
11,CN(Cc1cn(CC2CCNCC2)nn1)CC1CCCCO1 (configuration not stated),-8.15%
12,CNC(=O)Nc1cc(-c2ccccc2C)nn1CCO,21.1%
13,COc1c(C)cnc(CN2CCn3c(nnc3C(C)C)C2)c1C,-1.82%
14,Cc1noc([C@H]2COC[C@H]3CN(C(=O)Cc4ccc(F)cc4)C[C@H]32)n1,-2.96%
15,Cc1occc1-c1nc(-c2cccc(CN3CCOCC3)c2)no1,0.585%
16,Cc1ocnc1C(=O)N(C)[C@@H]1CC[C@@H](n2ccnc2C)[C@@H]1O,-7.34%
17,COc1ccccc1OC1CCN(Cc2ccc(N(C)C)nc2)CC1,-6.85%
18,CCSc1nc(N)c(NC(=O)c2ccc(OC)c(OC)c2)c(=O)[nH]1,11.2%
19,CCn1cnnc1CNC(=O)C1COc2ccc(Cl)cc2C1 (configuration not stated),-3.41%
20,Cc1cccc(C(C)CNC(=O)N2CCOCC3(CCOCC3)C2)c1 (configuration not stated),-4.47%
21,Cc1cnc(N2CCN(C(C)C(N)=O)CC2)nc1 (configuration not stated),-1.41%
22,Cc1ccc([C@H]2CN(C(=O)C3CCC3)C[C@@H]2N)o1,-1.49%
23,CCN(CC)c1ccc(NC(=O)NCC2CCOC2)cn1 (configuration not stated),-12.2%

row,SMILES,cytotoxicity at 70.5 h
1,Cc1nc2ccnn2c(C)c1CCC(=O)N1CCSCC1,-6.09%
2,COC(=O)CCCNC(=O)N1CCc2c([nH]c3ccc(Cl)cc23)C1,-6.07%
3,CC(NC(=O)NC1CCN(Cc2ccccn2)CC1)c1nncn1C (configuration not stated),-2%
4,Cc1noc(-c2ccc(Oc3cccc(CN4CCCC4)c3F)nc2)n1,16.7%
5,CSCC[C@@H](CO)n1ccnc1-c1nccn1C,-5.66%
6,COc1ccc(CN2C[C@@H]3CN(Cc4ccoc4)C[C@@H]3C2=O)cc1,-6.31%
7,N#Cc1c(SCCN2CCOCC2)sc2c(O)cc(O)nc12,17.3%
8,CCOc1ccc(-n2ccc3nc(N4CCCC4)ncc3c2=O)cc1,-2.37%
9,Cc1nnc2n1CCN(CCS(=O)(=O)c1ccc(Cl)cc1)C2,2.97%
10,Fc1cccc(Cl)c1CNCCOc1ccccn1,-20.9%
11,Cc1ccc(CN2CC[C@@H](NC(=O)c3cccnc3)[C@H](O)C2)s1,-10.7%
12,Fc1ccc(CN2CCOCC3(CCN(Cc4nccs4)C3)C2)cc1 (configuration not stated),-1.05%
13,Cc1cnn(C2CCCN(C(=O)Cc3cn4ccccc4n3)C2)c1 (configuration not stated),-12.4%
14,CN(Cc1nccn1C)S(=O)(=O)N1CCCC1c1ccco1 (configuration not stated),-11.4%
15,CC(C)(N)C(=O)N1CCC(c2nccnc2Oc2cccc(F)c2)CC1,-10.4%
16,O=S(=O)(C1CC1)N1C[C@@H]2CN(Cc3cccs3)CCO[C@@H]2C1,11.2%
17,COc1ccc(OC)c(CNCc2c(C(C)C)nn(C)c2N(C)C)c1,-3.06%
18,Cc1n[nH]c(SCC(=O)NC(c2ccccn2)C(C)C)n1 (configuration not stated),-0.841%
19,COC[C@H]1CCCN1c1nccc(-c2cnn(-c3ccccc3C)c2)n1,-1.39%
20,CC(C)c1nnc2n1CCN(Cc1nc(-c3ccoc3)no1)C2,16.7%
21,COc1ccccc1CNC(=O)CN(C)C(C)c1nccs1 (configuration not stated),-1.57%
22,CC1CCc2nc(O)c(C(=O)NCc3ccccc3F)cc2C1 (configuration not stated),7.1%
23,CCc1nnc2n1CCN(C(=O)c1ccc(-c3ccco3)[nH]c1=O)C2,-6.59%

row,SMILES,cytotoxicity at 70.5 h
1,Cc1nc(CN2CCCC(N(C)c3ccc(C#N)cn3)C2)no1 (configuration not stated),-2.54%
2,O=C(Nc1ccc(F)cc1)C1CNCCN1C(=O)CC1CCCCC1 (configuration not stated),31.3%
3,COc1ccc(C[C@H]2CN(C(=O)c3cnoc3)CC[C@@H]2OC)cc1,-3.97%
4,CN(Cc1ccccc1)C1(C(=O)NCC(N)=O)Cc2ccccc2C1,5.7%
5,COC(=O)CCn1ccc(=O)c2ccc(OC)cc21,19.7%
6,O=C(O)C1(Cc2cc(-c3ccc(F)cc3)no2)CCOCC1,8.42%
7,N#Cc1ccc(F)c(CSCCN2CCOCC2)c1,-7.03%
8,Cc1cc(C)c(C(=O)NC2CCCc3nc(N(C)C)ncc32)cc1C (configuration not stated),23.6%
9,CN(C)CCN1CC2(CCCN(c3ncc(Cl)cc3F)C2)CCC1=O (configuration not stated),-5.68%
10,CN(C)Cc1ccc(C2CCCCN2C(=O)c2cc(C3CC3)n[nH]2)cc1 (configuration not stated),-5%
11,CCn1cc(C(=O)NCCN2CCCc3ccccc32)c(C)n1,-0.0816%
12,Cc1cc(CN2CCN(C(=O)NC(C)c3ccncc3)CC2)on1 (configuration not stated),-9.79%
13,N#CC(NC(=O)CC1CCSCC1)c1cnn(-c2ccccc2)c1 (configuration not stated),-3.51%
14,CCN(C(=O)CN1CCCC1c1ccc(OC)cc1)c1ccccc1 (configuration not stated),2.59%
15,Cc1nn(C)c(Cl)c1CNCCOc1ccc2c(c1)OCO2,7.39%
16,CCS(=O)(=O)c1ncc(CN(C)Cc2ccc(C)o2)n1CCOC,17.1%
17,CN(C)C(=O)c1nnn(-c2ccc(Br)cc2)n1,28.4%
18,CS(=O)(=O)N1CCO[C@@H]2CCN(C(=O)c3cccs3)CC[C@H]21,1.12%
19,O=C(CCc1nc(Cl)n[nH]1)N1CCC2(CCCNC2=O)C1 (configuration not stated),4.11%
20,Cc1cccc(OCC(=O)N2CCN(C3CCOC3=O)CC2)c1C (configuration not stated),-2.32%
